{
  "source": "patent US4066753A",
  "about": "“Neomycin and paromomycin derivatives” (Canadian Patents and Development Limited, priority 1976, dated 1978)",
  "assay_type_in_all_cases": "cell-based",
  "key": {"[1]": {"tested_on": "S. pyogenes S B352", "experiment": "IN VITRO antibacterial activity, S. pyogenes S B352", "conditions": "Streptococcus pyogenes, SB352, 24 h", "protocol": "(§1) In the Tables above MIC stands for minimum inhibitory concentration and\n(§2) the results were obtained by providing halving dilutions of the test\n(§3) compound in nutrient broth (concentrations usually range from 1/10,000 to\n(§4) 1/320,000). These solutions are inoculated with the test organism,\n(§5) incubated for 24 hours at 37° C and then examined for the presence\n(§6) of growth. A test compound found to have a minimum inhibitory\n(§7) concentration (MIC) of 1/160,000 is generally considered as a lead."}, "[2]": {"tested_on": "Pr. mirabilis 360", "experiment": "IN VITRO antibacterial activity, Pr. mirabilis 360", "conditions": "Proteus mirabilis, 360, 24 h", "protocol": "as §1, §2, §3, §4, §5, §6, §7"}, "[3]": {"tested_on": "Pr. vulgaris 316", "experiment": "IN VITRO antibacterial activity, Pr. vulgaris 316", "conditions": "Proteus vulgaris, 316, 24 h", "protocol": "as §1, §2, §3, §4, §5, §6, §7"}, "[4]": {"tested_on": "S. fecalis 353", "experiment": "IN VITRO antibacterial activity, S. fecalis 353", "conditions": "24 h", "protocol": "as §1, §2, §3, §4, §5, §6, §7"}, "[5]": {"tested_on": "S. pullorum 358", "experiment": "IN VITRO antibacterial activity, S. pullorum 358", "conditions": "Salmonella enterica, PULLORUM, 24 h", "protocol": "as §1, §2, §3, §4, §5, §6, §7"}, "[6]": {"tested_on": "Kl. pneumoniae 855 (ATCC 10081)", "experiment": "IN VITRO antibacterial activity, Kl. pneumoniae 855 (ATCC 10081)", "conditions": "Klebsiella pneumoniae, ATCC10081, nutrient broth, 24 hours at 37° C", "protocol": "as §1, §2, §3, §4, §5, §6, §7"}, "[7]": {"tested_on": "E. Coli 198 (ATCC 1/229)", "experiment": "IN VITRO antibacterial activity, E. Coli 198 (ATCC 1/229)", "conditions": "Escherichia coli, ATCC1, 24 h", "protocol": "as §1, §2, §3, §4, §5, §6, §7"}, "[8]": {"tested_on": "S. pyogenes R 353", "experiment": "IN VITRO antibacterial activity, S. pyogenes R 353", "conditions": "Streptococcus pyogenes, R353, 24 h", "protocol": "as §1, §2, §3, §4, §5, §6, §7"}, "[9]": {"tested_on": "A. aerogenes 357", "experiment": "IN VITRO antibacterial activity, A. aerogenes 357", "conditions": "Klebsiella aerogenes, 357, 24 h", "protocol": "as §1, §2, §3, §4, §5, §6, §7"}, "[10]": {"tested_on": "P. aeruginosa 359", "experiment": "IN VITRO antibacterial activity, P. aeruginosa 359", "conditions": "Pseudomonas aeruginosa, 359, 24 h", "protocol": "as §1, §2, §3, §4, §5, §6, §7"}, "[11]": {"tested_on": "S. marcesceus 854 (ATCC → 103)", "experiment": "IN VITRO antibacterial activity, S. marcesceus 854 (ATCC → 103)", "conditions": "24 h", "protocol": "as §1, §2, §3, §4, §5, §6, §7"}, "[12]": {"tested_on": "P. aeruginosa 377", "experiment": "IN VITRO antibacterial activity against resistant organisms, P. aeruginosa 377", "protocol": "as §1, §2, §3, §4, §5, §6, §7"}, "[13]": {"tested_on": "E. coli B989", "experiment": "IN VITRO antibacterial activity against resistant organisms, E. coli B989", "conditions": "resistant organism E. coli B989, nutrient broth, 24 hours at 37° C", "protocol": "as §1, §2, §3, §4, §5, §6, §7"}, "[14]": {"tested_on": "P. aeruginosa 87442", "experiment": "IN VITRO antibacterial activity against resistant organisms, P. aeruginosa 87442", "protocol": "as §1, §2, §3, §4, §5, §6, §7"}, "[15]": {"tested_on": "E. coli B1002", "experiment": "IN VITRO antibacterial activity against resistant organisms, E. coli B1002", "protocol": "as §1, §2, §3, §4, §5, §6, §7"}},
  "note": "Where two headings read alike, the source gives them in different places.",
  "data": [
    {"compound": "NC[C@@H]1O[C@H](O[C@H]2[C@@H](O)[C@H](O[C@@H]3[C@@H](O)[C@H](N)C[C@H](N)[C@H]3O[C@H]3O[C@H](CN)[C@@H](O)[C@H](O)[C@H]3N)O[C@@H]2CO)[C@H](N)[C@@H](O)[C@@H]1O", "note": "[Neomycin B, neomycin B]", "values": [
      {"measurement": "MIC", "setting": "[1]", "value": "< 0.2", "unit": "µg/mL"},
      {"measurement": "MIC", "setting": "[2]", "value": 0.4, "unit": "µg/mL"},
      {"measurement": "MIC", "setting": "[3]", "value": "< 0.2", "unit": "µg/mL"},
      {"measurement": "MIC", "setting": "[4]", "value": 0.8, "unit": "µg/mL"},
      {"measurement": "MIC", "setting": "[5]", "value": "< 0.2", "unit": "µg/mL"},
      {"measurement": "MIC", "setting": "[6]", "value": "< 0.2", "unit": "µg/mL"},
      {"measurement": "MIC", "setting": "[7]", "value": 0.8, "unit": "µg/mL"},
      {"measurement": "MIC", "setting": "[8]", "value": "< 0.2", "unit": "µg/mL"},
      {"measurement": "MIC", "setting": "[9]", "value": "< 0.2", "unit": "µg/mL"},
      {"measurement": "MIC", "setting": "[10]", "value": 0.8, "unit": "µg/mL"},
      {"measurement": "MIC", "setting": "[11]", "value": "< 0.2", "unit": "µg/mL"}
    ]},
    {"compound": "NC[C@H]1O[C@H](O[C@H]2[C@H](O)[C@@H](O[C@H]3O[C@H](CO)[C@@H](O)[C@H](N)[C@H]3O)[C@H](N)C[C@@H]2N)[C@H](O)[C@@H](O)[C@@H]1O", "note": "[Kanamycin]", "values": [
      {"measurement": "MIC", "setting": "[12]; Pseudomonas aeruginosa, 377, 24 h", "value": 3.2, "unit": "µg/mL"},
      {"measurement": "MIC", "setting": "[13]; Escherichia coli, read-out: MIC", "value": 100, "unit": "µg/mL"},
      {"measurement": "MIC", "setting": "[14]; Pseudomonas aeruginosa, 87442, 24 h", "value": 0.8, "unit": "µg/mL"},
      {"measurement": "MIC", "setting": "[15]; Escherichia coli, B1002, 24 h", "value": "< 100", "unit": "µg/mL"}
    ]},
    {"compound": "Gentamycin", "values": [
      {"measurement": "MIC", "setting": "[12]; resistant organism P. aeruginosa 377, nutrient broth, 24 hours at 37° C", "value": "< 0.2", "unit": "µg/mL"},
      {"measurement": "MIC", "setting": "[13]", "value": "< 0.2", "unit": "µg/mL"},
      {"measurement": "MIC", "setting": "[14]; resistant organism P. aeruginosa 87442, nutrient broth, 24 hours at 37° C", "value": "< 0.2", "unit": "µg/mL"},
      {"measurement": "MIC", "setting": "[15]; resistant organism E. coli B1002, nutrient broth, 24 hours at 37° C", "value": "< 0.2", "unit": "µg/mL"}
    ]}
  ]
}
